{
  "source": "patent US12109192B2",
  "about": "“Organic acid addition salts of S-pindolol” (ACTIMED THERAPEUTICS LTD, priority 2020, dated 2024)",
  "key": {"[1]": {"conditions": "as measured at 25° C.; for a monocarboxylic acid pKa1 is the pKa; cited from earlier work"}, "[2]": {"test": "Dynamic vapour sorption (DVS)", "format": "physicochemical", "conditions": "for hygroscopicity: DVS up to 90% RH; for solid form after DVS (XRPD): post-DVS; for DVS mass uptake / DVS mass uptake as equivalents of water: at 90% RH, 25° C.", "protocol": "Approximately 10-20 mg of sample was placed into a mesh vapour sorption balance pan and loaded into an Intrinsic dynamic vapour sorption balance by Surface Measurement Systems. The sample was subjected to a ramping profile from 40-90% relative humidity (RH) at 10% increments, maintaining the sample at each step until a stable weight had been achieved (dm/dt 0.004%, minimum step length 30 minutes, maximum step length 500 minutes) at 25° C. After completion of the sorption cycle, the sample was dried using the same procedure to 0% RH and then a second sorption cycle back to 40% RH. Two cycles were performed. The weight change during the sorption/desorption cycles were plotted, allowing for the hygroscopic nature of the sample to be determined. XRPD analysis was then carried out on any solid retained."}, "Thermodynamic solubility": {"test": "Thermodynamic solubility", "conditions": "unbuffered water, thermodynamic from solid"}},
  "note": "Read-outs that look alike come from different tables or passages of the source.",
  "data": [
    {"smiles": "O=C(O)c1ccc2ccccc2c1", "note": "[2-naphthoic acid]", "values": [
      {"measurement": "pKa1", "setting": "[1]", "result": 4.16}
    ]},
    {"smiles": "O=C(O)Cc1ccccc1", "note": "[phenylacetic acid]", "values": [
      {"measurement": "pKa1", "setting": "[1]", "result": 4.31}
    ]},
    {"smiles": "O=C(O)[C@@H](O)c1ccccc1", "note": "[S-(+)-mandelic acid]", "values": [
      {"measurement": "pKa1", "setting": "[1]", "result": 3.37}
    ]},
    {"smiles": "CC(C)NC[C@H](O)COc1cccc2[nH]ccc12.O=C(O)c1ccccc1", "note": "[S-pindolol benzoate Pattern 2, S-pindolol benzoate]", "values": [
      {"measurement": "hygroscopicity", "setting": "[2]", "result": "non-hygroscopic"},
      {"measurement": "solid form after DVS (XRPD)", "setting": "[2]", "result": "Pattern 2 retained, organic solvent"},
      {"measurement": "Thermodynamic solubility, free base concentration", "setting": "pH 1.2", "result": 23.5, "unit": "mg/mL"},
      {"measurement": "solid form after thermodynamic solubility experiment", "setting": "pH 1.2", "result": "Salt disproportionated."},
      {"measurement": "Thermodynamic solubility, free base concentration", "setting": "pH 4.5", "result": 17.6, "unit": "mg/mL"},
      {"measurement": "solid form after thermodynamic solubility experiment", "setting": "pH 4.5", "result": "Pattern 2 retained."},
      {"measurement": "Thermodynamic solubility, free base concentration", "setting": "pH 6.8", "result": 9.9, "unit": "mg/mL"},
      {"measurement": "solid form after thermodynamic solubility experiment", "setting": "pH 6.8", "result": "Pattern 2 retained."}
    ]},
    {"smiles": "O=C(O)c1cccc2ccccc12", "note": "[1-naphthoic acid]", "values": [
      {"measurement": "pKa1", "setting": "[1]", "result": 3.67}
    ]},
    {"smiles": "Cc1ccccc1C(=O)O", "note": "[toluic acid]", "values": [
      {"measurement": "pKa1", "setting": "[1]", "result": "4-5"}
    ]},
    {"smiles": "O=C(O)CCCC(=O)O", "note": "[glutaric acid]", "values": [
      {"measurement": "pKa1", "setting": "[1]", "result": 4.34}
    ]},
    {"smiles": "CC(C)NC[C@H](O)COc1cccc2[nH]ccc12", "note": "[S-pindolol free base, (2S)-1-(1H-indol-4-yloxy)-3-(propan-2-ylamino)propan-2-ol, reference compound]", "values": [
      {"measurement": "hygroscopicity", "setting": "[2]", "result": "slightly hygroscopic"},
      {"measurement": "DVS mass uptake", "setting": "[2]", "result": 0.36, "unit": "wt. %"},
      {"measurement": "DVS mass uptake as equivalents of water", "setting": "[2]", "result": 0.05, "unit": "eq. water"},
      {"measurement": "solid form after DVS (XRPD)", "setting": "[2]", "result": "remained unchanged"},
      {"measurement": "solubility thermodynamic", "setting": "Thermodynamic solubility", "result": 1.8, "unit": "mg/mL"}
    ]},
    {"smiles": "CC(C)NC[C@H](O)COc1cccc2[nH]ccc12.O=C(O)CCC(=O)O", "note": "[S-pindolol succinate Pattern 1, S-pindolol succinate]", "values": [
      {"measurement": "DVS mass uptake", "setting": "[2]", "result": 0.70, "unit": "wt. %"},
      {"measurement": "DVS mass uptake as equivalents of water", "setting": "[2]", "result": 0.14, "unit": "eq. water"},
      {"measurement": "solid form after DVS (XRPD)", "setting": "[2]", "result": "retained"}
    ]},
    {"smiles": "CC(C)NC[C@H](O)COc1cccc2[nH]ccc12.O=C(O)c1ccccc1", "note": "[S-pindolol benzoate Pattern 1, S-pindolol benzoate]", "values": [
      {"measurement": "DVS mass uptake", "setting": "[2]", "result": 0.23, "unit": "wt. %"},
      {"measurement": "DVS mass uptake as equivalents of water", "setting": "[2]", "result": 0.05, "unit": "eq. water"},
      {"measurement": "solid form after DVS (XRPD)", "setting": "[2]", "result": "Pattern 1 retained, mass uptake"},
      {"measurement": "Thermodynamic solubility, free base concentration", "setting": "pH 1.2", "result": 29.9, "unit": "mg/mL"},
      {"measurement": "solid form after thermodynamic solubility experiment", "setting": "pH 1.2", "result": "Converted to amorphous."},
      {"measurement": "Thermodynamic solubility, free base concentration", "setting": "pH 4.5", "result": 20.1, "unit": "mg/mL"},
      {"measurement": "solid form after thermodynamic solubility experiment", "setting": "pH 4.5", "result": "Converted to amorphous."},
      {"measurement": "Thermodynamic solubility, free base concentration", "setting": "pH 6.8", "result": 17.4, "unit": "mg/mL"},
      {"measurement": "solid form after thermodynamic solubility experiment", "setting": "pH 6.8", "result": "Pattern 1 retained."}
    ]}
  ]
}
